Assay results: PubChem BioAssay (NCI)
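Tested at 5 concentrations; 48 h exposure; 96-well plates; endpoints linearly interpolated, else capped at highest concentration. TGI denotes the concentration required for complete inhibition of growth.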

What was measured:
Test in all cases: NCI-60 cell line screen, 48 h
SK-OV-3 ovarian = test system: SK-OV-3 ovarian
HL-60(TB) leukemia = test system: HL-60(TB) leukemia
EKVX NSCLC = test system: EKVX NSCLC
NCI-H226 lung = test system: NCI-H226 lung
MDA-MB-435 = test system: MDA-MB-435
MCF7 breast = test system: MCF7 breast
UACC-62 melanoma = test system: UACC-62 melanoma
OVCAR-5 ovarian = test system: OVCAR-5 ovarian
SN12C renal = test system: SN12C renal
SNB-19 CNS = test system: SNB-19 CNS
K-562 leukemia = test system: K-562 leukemia
SF-268 CNS = test system: SF-268 CNS
LOX IMVI melanoma = test system: LOX IMVI melanoma
ACHN renal = test system: ACHN renal
A498 renal = test system: A498 renal
SF-295 CNS = test system: SF-295 CNS
HCT-116 colon = test system: HCT-116 colon
U251 CNS = test system: U251 CNS
HS 578T breast = test system: HS 578T breast
NCI/ADR-RES ovarian = test system: NCI/ADR-RES ovarian
786-0 renal = test system: 786-0 renal
DU-145 prostate = test system: DU-145 prostate
A549 NSCLC = test system: A549 NSCLC
BT-549 breast = test system: BT-549 breast
OVCAR-3 ovarian = test system: OVCAR-3 ovarian
UO-31 renal = test system: UO-31 renal
SR leukemia = test system: SR leukemia
SK-MEL-28 melanoma = test system: SK-MEL-28 melanoma
SW-620 colon = test system: SW-620 colon
PC-3 prostate = test system: PC-3 prostate
UACC-257 melanoma = test system: UACC-257 melanoma
HCT-15 colon = test system: HCT-15 colon
HT29 colon = test system: HT29 colon
RXF 393 renal = test system: RXF 393 renal
NCI-H23 lung = test system: NCI-H23 lung
MDA-MB-231 breast = test system: MDA-MB-231 breast
MDA-N = test system: MDA-N
NCI-H522 lung = test system: NCI-H522 lung
MALME-3M melanoma = test system: MALME-3M melanoma
M14 melanoma = test system: M14 melanoma
COLO 205 colon = test system: COLO 205 colon
HCC-2998 colon = test system: HCC-2998 colon
CAKI-1 renal = test system: CAKI-1 renal
MOLT-4 leukemia = test system: MOLT-4 leukemia
KM12 colon = test system: KM12 colon
SK-MEL-5 melanoma = test system: SK-MEL-5 melanoma
TK-10 renal = test system: TK-10 renal
OVCAR-8 ovarian = test system: OVCAR-8 ovarian
CCRF-CEM leukemia = test system: CCRF-CEM leukemia
SK-MEL-2 melanoma = test system: SK-MEL-2 melanoma
RPMI-8226 leukemia = test system: RPMI-8226 leukemia
SF-539 CNS = test system: SF-539 CNS
NCI-H460 lung = test system: NCI-H460 lung
HOP-62 NSCLC = test system: HOP-62 NSCLC
IGROV1 ovarian = test system: IGROV1 ovarian
OVCAR-4 ovarian = test system: OVCAR-4 ovarian
T-47D breast = test system: T-47D breast
SNB-75 CNS = test system: SNB-75 CNS
HOP-92 NSCLC = test system: HOP-92 NSCLC

Measured: TGI

CCOC1NC(/N=C/c2ccc(OC)cc2)=C(C#N)C1C#N (configuration not stated)
73.5 µM: BT-549 breast
82.2 µM: CCRF-CEM leukemia
47.8 µM: NCI-H522 lung
not listed: T-47D breast | SNB-75 CNS | HOP-92 NSCLC
> 100 µM: all other assays above

O=C1c2cc3c(cc2CC1Cc1ccc2c(c1)CCC2)CCC3 (configuration not stated)
52.2 µM: COLO 205 colon
75.5 µM: SNB-75 CNS
95.1 µM: SR leukemia
65 µM: NCI-H226 lung
63.1 µM: T-47D breast
not listed: 786-0 renal | CAKI-1 renal | HOP-92 NSCLC
> 100 µM: all other assays above

Cc1ccc(N=C2SC(=NN(C)C)SC2=Nc2ccc(C)cc2)cc1
not listed: MCF7 breast | BT-549 breast | OVCAR-3 ovarian | M14 melanoma
> 100 µM: all other assays above
